Assay results from patent US5750754A, “Heterocyclic compounds” (Zeneca Limited, priority 1993, dated 1998).
Structures can show the parent of a compound that is named as a salt.

Assays:
[1] = molecular target: T1, human, citrated, platelet-rich plasma (Homo sapiens, UniProt P05106+P08514); assay: Test (a): inhibition of ADP stimulated platelet aggregation (Born); assay type: cell-based; settings: ADP induced aggregation of human platelet-rich plasma; for Kb: read-out: Test (a): pA2 value indicating potency of platelet aggregation inhibition (converted)
T1 construct: aggregating human, citrated, platelet-rich plasma; endogenous in cells; host or cells: human platelets in citrated platelet-rich plasma
T1 sequence (P08514 32-887 limits assumed): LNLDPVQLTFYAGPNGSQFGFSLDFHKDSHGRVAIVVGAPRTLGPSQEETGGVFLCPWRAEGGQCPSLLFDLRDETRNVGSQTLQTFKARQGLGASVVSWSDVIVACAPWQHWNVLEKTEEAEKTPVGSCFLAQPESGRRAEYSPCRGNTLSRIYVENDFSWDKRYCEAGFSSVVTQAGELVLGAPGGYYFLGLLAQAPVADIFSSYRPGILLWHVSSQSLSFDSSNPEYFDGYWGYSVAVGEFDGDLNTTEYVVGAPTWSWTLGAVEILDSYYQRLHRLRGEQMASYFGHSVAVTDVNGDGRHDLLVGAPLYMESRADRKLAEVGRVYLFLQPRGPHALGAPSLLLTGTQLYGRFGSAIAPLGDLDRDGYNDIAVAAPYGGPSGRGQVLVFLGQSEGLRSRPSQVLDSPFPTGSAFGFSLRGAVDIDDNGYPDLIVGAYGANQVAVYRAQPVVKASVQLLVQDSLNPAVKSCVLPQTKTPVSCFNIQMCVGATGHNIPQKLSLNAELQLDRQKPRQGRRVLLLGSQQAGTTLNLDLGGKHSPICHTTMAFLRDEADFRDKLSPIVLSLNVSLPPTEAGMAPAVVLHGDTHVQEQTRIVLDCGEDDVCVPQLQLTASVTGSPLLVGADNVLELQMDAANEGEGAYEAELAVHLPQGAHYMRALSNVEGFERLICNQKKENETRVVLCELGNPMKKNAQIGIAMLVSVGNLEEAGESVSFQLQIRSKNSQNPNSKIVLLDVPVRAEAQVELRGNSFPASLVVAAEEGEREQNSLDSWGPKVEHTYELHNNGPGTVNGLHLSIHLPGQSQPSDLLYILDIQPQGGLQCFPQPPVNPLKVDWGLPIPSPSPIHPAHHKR
T1 sequence (P08514 891-1039 limits assumed): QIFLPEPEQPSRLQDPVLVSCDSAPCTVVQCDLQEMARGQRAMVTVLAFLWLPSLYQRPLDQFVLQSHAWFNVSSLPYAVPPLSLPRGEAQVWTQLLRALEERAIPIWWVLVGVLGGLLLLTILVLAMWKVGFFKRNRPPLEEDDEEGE
T1 sequence (P05106 27-788): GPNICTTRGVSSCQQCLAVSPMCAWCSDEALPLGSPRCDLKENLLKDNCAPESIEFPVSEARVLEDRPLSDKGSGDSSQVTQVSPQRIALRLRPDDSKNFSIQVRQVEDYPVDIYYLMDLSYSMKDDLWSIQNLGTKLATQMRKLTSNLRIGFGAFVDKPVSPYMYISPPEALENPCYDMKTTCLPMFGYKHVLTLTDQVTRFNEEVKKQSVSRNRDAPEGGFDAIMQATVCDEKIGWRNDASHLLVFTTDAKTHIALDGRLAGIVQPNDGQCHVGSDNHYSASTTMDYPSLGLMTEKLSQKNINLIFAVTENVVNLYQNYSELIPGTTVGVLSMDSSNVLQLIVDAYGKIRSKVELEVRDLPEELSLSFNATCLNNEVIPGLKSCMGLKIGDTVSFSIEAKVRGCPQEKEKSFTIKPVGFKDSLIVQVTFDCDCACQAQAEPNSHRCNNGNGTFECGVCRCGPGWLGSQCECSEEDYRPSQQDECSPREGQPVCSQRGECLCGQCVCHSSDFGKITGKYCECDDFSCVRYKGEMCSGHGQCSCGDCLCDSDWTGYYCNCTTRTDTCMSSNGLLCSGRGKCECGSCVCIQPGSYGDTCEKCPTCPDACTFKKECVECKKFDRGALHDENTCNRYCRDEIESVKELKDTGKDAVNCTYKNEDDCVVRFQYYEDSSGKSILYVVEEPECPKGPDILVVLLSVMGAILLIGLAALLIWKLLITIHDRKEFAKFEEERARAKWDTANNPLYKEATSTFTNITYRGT
In short: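 pA2 calculated by comparing ADP EC50-type (50% response) values in presence and absence of compound, averaged across concentrations (generally 10-^5 M to 10-^10 M). Aggregation (Born) induced by ADP in citrated human platelet-rich plasma, giving dose-response curves.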

[2] = molecular target: T2, purified human platelet fibrinogen receptor (GPIIb/IIIa) (Homo sapiens, UniProt P05106+P08514); assay: Test (b): GPIIb/IIIa ELISA, inhibition of biotinylated fibrinogen binding; settings: for IC50: read-out: Test (b): pIC50 (-log(IC50)), 50% inhibition of biotinylated fibrinogen binding to GPIIb/IIIa (converted)
T2 construct: is isolated from human platelet lysates; from tissue
T2 sequence (P08514 32-887 limits assumed): as the sequence (P08514 32-887 limits assumed) above
T2 sequence (P08514 891-1039 limits assumed): as the sequence (P08514 891-1039 limits assumed) above
T2 sequence (P05106 27-788): as the sequence (P05106 27-788) above
In short: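 Inhibition of biotinylated fibrinogen ([…]) binding to immobilised human platelet fibrinogen receptor, purified by KYGRGDS peptide affinity chromatography, was measured after 2 h at 30 °C. Readout: streptavidin–biotin-HRP colour with TMB at […]; value expressed as pIC50.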

[3] = system: Alderley Park Wistar rats; assay: Repeated oral dose study in the rat (liver effects, tolerability); assay type: in vivo
Procedure: The following is a description of a study of the effects of the (-)-(3R) compound of Example 246 and the corresponding (3RS)-racemic mixture of Example 203 in the rat. Four groups of ten Alderley Park Wistar rats (each group comprising 5 male and 5 female rats) were dose orally with the (3RS)-racemic mixture of Example 203 at daily doses of 0, 25, 100 or 500 mg/kg. Dosing was continued for a total of seven days. The animals were killed and examined.
Four groups of ten Alderley Park Wistar rats (each group comprising 5 male and 5 female rats) were dosed orally with the (-)-(3R) compound of Example 246 at daily doses of 0, 50, 250 and 1000 mg/kg. The highest dose was not tolerated. After four or five days, four of the animals from this group were killed. The remaining six animals were dosed at 500 mg/kg/day for the remainder of the study. Dosing was continued for a total of fourteen days. The animals were killed and examined.

[4] = system: aggregation of human blood platelets; assay: Test (a) modified to assess activity on oral administration (ex vivo); assay type: in vivo, dog; settings: dogs, 5 mg/kg
Procedure: Test (a) may be modified so as to assess the effects of a test compound ex vivo on the aggregation of human blood platelets after administration of the test compound to a laboratory animal, such as a rat, rabbit, guinea pig, mouse or dog. For example, groups of four male, fasted Alderley Park Wistar rats are orally dosed with a test compound or appropriate vehicle, and at suitable time intervals (1,3,5 and 8 hours after dosing) animals are anaesthetised with fluothane and bled by heart puncture. Blood is collected into 3.2% citrate (1 part to 9 parts whole blood) and platelet poor plasma (ppp) prepared by centrifugation (4500×g for 10 min). […]
Equal volumes (125 μl) of rat ppp and human prp are mixed together, ADP added, and the whole incubated (37° C.) and stirred (900 rpm) in a BioData platelet aggregometer. Aggregation is induced with ADP and agonist EC50 values calculated for human prp/rat ppp mixtures from animals dosed with test compound or vehicle. A mean concentration ratio (concentration of ADP required to cause a 50% aggregation response in human prp/rat ppp mixtures from animals dosed with antagonist, divided by the concentration of ADP to cause 50% aggregation in human prp/rat ppp mixtures from animals dosed with vehicle) is calculated at each time point.

αv β3 = αv β3 (Homo sapiens, UniProt P05106+P06756); assay: Binding of αv β3 to vitronectin; settings: read-out: pIC50, binding of αv β3 to vitronectin (converted)
Chain of αv β3 (P06756 31-889 limits assumed): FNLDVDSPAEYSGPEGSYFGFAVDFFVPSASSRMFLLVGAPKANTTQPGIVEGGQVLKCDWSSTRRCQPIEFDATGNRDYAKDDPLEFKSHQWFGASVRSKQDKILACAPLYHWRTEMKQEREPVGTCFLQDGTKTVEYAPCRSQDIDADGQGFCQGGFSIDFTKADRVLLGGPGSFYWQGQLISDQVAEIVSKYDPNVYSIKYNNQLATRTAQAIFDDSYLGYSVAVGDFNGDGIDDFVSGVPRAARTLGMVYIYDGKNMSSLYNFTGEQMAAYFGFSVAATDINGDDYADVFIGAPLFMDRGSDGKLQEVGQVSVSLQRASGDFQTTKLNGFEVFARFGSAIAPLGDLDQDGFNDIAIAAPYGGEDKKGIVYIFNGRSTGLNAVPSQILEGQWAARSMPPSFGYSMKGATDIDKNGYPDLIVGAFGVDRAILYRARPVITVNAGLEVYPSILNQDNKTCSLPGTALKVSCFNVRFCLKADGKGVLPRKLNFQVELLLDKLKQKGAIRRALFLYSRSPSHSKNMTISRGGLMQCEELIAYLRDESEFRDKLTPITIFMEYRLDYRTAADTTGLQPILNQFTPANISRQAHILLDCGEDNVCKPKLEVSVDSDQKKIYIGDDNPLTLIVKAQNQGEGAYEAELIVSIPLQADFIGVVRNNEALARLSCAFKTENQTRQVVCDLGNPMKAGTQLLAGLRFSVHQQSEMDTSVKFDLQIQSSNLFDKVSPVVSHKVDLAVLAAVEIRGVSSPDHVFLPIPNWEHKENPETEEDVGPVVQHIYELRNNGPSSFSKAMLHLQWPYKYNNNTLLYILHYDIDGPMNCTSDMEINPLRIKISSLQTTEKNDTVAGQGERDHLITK
Chain of αv β3 (P06756 891-1048 limits assumed): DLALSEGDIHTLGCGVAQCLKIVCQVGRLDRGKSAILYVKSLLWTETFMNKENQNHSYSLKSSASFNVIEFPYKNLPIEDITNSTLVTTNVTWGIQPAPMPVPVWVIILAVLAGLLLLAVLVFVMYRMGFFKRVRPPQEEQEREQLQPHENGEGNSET
Chain of αv β3 (P05106 27-788): as the sequence (P05106 27-788) above

αv β1 = assay: Binding of αv β1 to fibronectin
[5] = purified human platelet GPIIb/IIIa, ELISA

| Compound | Kb [1] | IC50 [2, 5] | also measured |
| --- | --- | --- | --- |
| CC(COc1ccc(N2CCN(c3ccncc3)CC2)cc1)CC(=O)O (racemic) [Example 203, RS 3-Methyl-4-[4-[4-(4-pyridyl)piperazin-1-yl]phenoxy]butyric acid trifluoroacetate] | – | – | Test (a): pA2 value indicating potency of platelet aggregation inhibition [1]: 7.2; Test (b): pIC50 (-log(IC50)), 50% inhibition of biotinylated fibrinogen binding to GPIIb/IIIa [2, 5]: 8; adverse effects in the liver ([3]; rat, oral, 500 mg/kg/day, seven days): Adverse effects were noted in the livers of six of the group of ten rats |
| COC(=O)COc1ccc(C(=O)CN2CCN(c3ccncc3)CC2)cc1 [Example 1, Methyl 4-[2-[4-(4-pyridyl)piperazin-1-yl]acetyl]phenoxyacetate] | 0.158 to 0.316 µM | 0.398 to 1.58 µM | duration of activity when dosed orally [4]: up to 12 hours |
| CCOC(=O)CCCOc1cccc(N2CCN(c3ccncc3)CC2)c1 [Example 226, Ethyl 3-[4-(4-pyridyl)piperazin-1-yl]phenoxybutyrate] | 20 µM | 3.16 µM | – |
| O=C(O)CCCOc1cccc(N2CCN(c3ccncc3)CC2)c1 [Example 227, 3-[4-(4-Pyridyl)piperazin-1-yl]phenoxybutyric acid] | 2.51 µM | 0.1 µM | – |
| CCOC(=O)CCCCOc1cccc(N2CCN(c3ccncc3)CC2)c1 [Example 228, Ethyl 3-[4-(4-pyridyl)piperazin-1-yl]phenoxypentanoate] | 10 µM | > 100 µM | – |
| O=C(O)CCCCOc1cccc(N2CCN(c3ccncc3)CC2)c1 [Example 229, 3-[4-(4-Pyridyl)piperazin-1-yl]phenoxypentanoic acid] | 3.98 µM | 0.0794 µM | – |
| O=C(O)c1ccc(Oc2ccc(N3CCN(c4ccncc4)CC3)cc2)nc1 [Example 233, 6-[4-[4-(4-Pyridyl)piperazin-1yl]phenoxy]pyridine-3-carboxylic acid] | 6.31 µM | 0.501 µM | – |
| C[C@@H](COc1ccc(N2CCN(c3ccncc3)CC2)cc1)CC(=O)O.Cl [Example 246, (-)-(3R)-3-Methyl-4-{4-[4-(4-pyridyl)piperazin-1-yl]phenoxy}butyric acid hydrochloride] | 0.0501 µM | 0.0224 µM | potency as a GPIIb/IIIa antagonist relative to the corresponding (+)-(3S) isomer ([2]; versus (+)-(3S) isomer): greater than 10 fold; IC50 (αv β3): > 100 µM; pIC50, binding of αv β1 to fibronectin (αv β1): less than 4; toxicity relative to the (3RS)-racemic mixture (by implication) ([3]; rat oral studies compared): less toxic than the (3RS)-racemic mixture of Example 203; adverse effect on the rat liver (conclusion) ([3]; rat, 500 mg/kg/day): no significant adverse effect on the rat liver; adverse effects in the liver ([3]; rat, oral, 250 mg/kg/day, fourteen days): No adverse effects were noted in the livers; tolerability of the highest dose ([3]; rat, oral, 1000 mg/kg daily): not tolerated; adverse effect on the liver ([3]; rat, oral, 1000 mg/kg/day for three or four days then 500 mg/kg/day for ten or eleven days): no adverse effect on the liver |

Further lines, with some results ahead:

| Kb [1] | IC50 [2, 5] | Compound | also measured |
| --- | --- | --- | --- |
| 10 µM | 5.01 µM | COC(=O)[C@H]1CC[C@H](Oc2ccc(N3CCN(c4ccncc4)CC3)cc2)CC1 [Example 230, Trans-methyl-4-[4-[4-(4-pyridyl)piperazin-1-yl]phenoxy]cyclohexyl carboxylate] | – |
| 0.2 µM | 0.0316 µM | O=C(O)[C@H]1CC[C@H](Oc2ccc(N3CCN(c4ccncc4)CC3)cc2)CC1 [Example 231, Trans-4-[4-[4-(4-pyridyl)piperazin-1-yl]phenoxy]cyclohexane carboxylic acid] | – |
| 0.631 µM | 0.2 µM | O=C(O)C1CCN(C(=O)c2ccc(N3CCN(c4ccncc4)CC3)cc2)CC1 [Example 234, 4-[(4-Pyridyl)piperazin-1-yl]benzoylisonipecotic acid] | – |
| 6.31 µM | 0.2 µM | O=C(O)C1CCCN(C(=O)c2ccc(N3CCN(c4ccncc4)CC3)cc2)C1 (stereo not drawn) [Example 235, 4-[(4-Pyridyl)piperazin-1-yl]benzoylnipecotic acid] | – |
| 0.794 µM | 0.0316 µM | O=C(O)C1CCCC(Oc2ccc(N3CCN(c4ccncc4)CC3)cc2)C1 (stereo not drawn) [Example 237, 3-[4-[4-(Pyridyl)piperazin-1-yl]phenoxy]cyclohexane carboxylic acid] | – |
